Key:
[1] = biological target: A/M2 S31N (Influenza A virus, UniProt P0DOF5, S31N); format: cell-based, influenza A/Udorn/72; conditions: for A/M2 S31N inhibition by 100 μM for 2 min (mean ± SE): pH 5.5
[2] = test system: A/PR/8/34 (A/H1N1); format: cell-based, influenza A virus
[3] = biological target: A/M2 V27A (Influenza A virus, UniProt P0DOF5, V27A); format: cell-based, influenza A/Udorn/72

Row | Structure (SMILES) | A/M2 S31N inhibition by 100 μM for 2 min (mean ± SE) [1] [%] | activity against A/PR/8/34 strain [2] | also measured
1 | C1=CC2C3CNCC3C1C1CC21.Cl (stereo not shown) [compound 4, 4-Azatetracyclo[5.3.2.0^2,6.0^8.10]dodec-11-ene Hydrochloride] | 0 |  | 
2 | Cl.N=C(N)N1CC2C3C=CC(C4CC34)C2C1 (stereo not shown) [compound 5, 4-Amidino-4-azatetracyclo[5.3.2.0^2,6.0^8.10]dodec-11-ene Hydrochloride] | 0 |  | 
3 | C1=CC2C3CC3C1C1CN(C3CCNCC3)CC21.Cl (stereo not shown) [compound 8, 4-(4-Piperidinyl)-4-azatetracyclo[5.3.2.0^2,6.0^8.10]dodec-11-ene Dihydrochloride] |  | strong activity | 
4 | C1=CC2C1C1C=CC2C2CNCC12.Cl (stereo not shown) [compound 11, 4-Azatetracyclo[5.4.2.0^2,6.0^8.11]trideca-9,12-diene Hydrochloride] |  | strong activity | 
5 | Cl.N=C(N)N1CC2C3CCC(C4CCC43)C2C1 (stereo not shown) [compound 14, 4-Amidino-4-azatetracyclo[5.4.2.0^2,6.0^8.11]tridecane Hydrochloride] |  |  | activity against V27A M2 mutant channel [3]: fair activity
6 | CC12CC34CNCC35CC1(C)C(C)(C5)C2(C)C4.Cl (stereo not shown) [compound 18, 7,8,9,10-Tetramethyl-3-azapentacyclo[7.2.1.1^5,8.0^1,5.0^7,10]tridecane Hydrochloride] |  | strong activity | inhibition of S31N mutant ion channel [1]: lack of inhibitory potency

From article PMC4096222 (Journal of Medicinal Chemistry, 2014)
